The values that follow come from paper PMC7655034, “Identification of a dual TAOK1 and MAP4K5 inhibitor using a structure-based virtual screening approach” (Journal of Enzyme Inhibition and Medicinal Chemistry, 2020).

Structures are written as SMILES. “And” between values parts separate entries of the source, which are not always exact repeats. Identical values can stand only once. Some results are limits rather than exact numbers.

One experiment concerns HT-29 cells. The experiment can be described thus: Cell cycle distribution by flow cytometry. It counts as cell-based, Human. As for the experimental part: The cell cycle distribution was measured by flow cytometry. HT-29 cells were treated with or without the indicated concentrations of compound 1 for 24 or 48 h or 72 h. The cells were harvested by trypsinizing and fixed in ice-cold 75% ethanol for 1 h at −20 °C. The samples were washed with PBS and resuspended in the proper amount of DNA extraction buffer, containing 0.2 M Na2HPO4 and 0.1 M citric acid pH 7.8, for 30 min. Then the cells were washed again with PBS and stained with propidium iodide solution containing 100 µg/ml RNaseA, 80 µg/ml propidium iodide and 0.1% Triton X-100, which were all in PBS. Finally, cell cycle distribution was determined and performed by utilising BD Accuri™ and C6 Software (BD Biosciences, Franklin Lakes, NJ, USA).

A further experiment relates to HCT116, HT29 and H1299. The experiment can be described thus: Single-concentration SRB and MTT assays in cancer cell lines. It counts as cell-based, Human. Conditions: for Effect in cell-based experiments: HCT116, HT-29, H1299. As for the experimental part:
(§1) Human colorectal cancer cell lines HCT116, HT-29 and human lung cancer cell line, H1299 were purchased from the Bioresource Collection and Research Centre (BCRC, Taiwan) and were incubated either in McCoy’s 5 A medium or RPMI-1640 medium (Thermo Fisher Scientific, Walthma, MA, USA), supplemented with 10% foetal bovine serum and 1% Penicillin-Streptomycin-Amphotericin B Solution (Biological Industries, Kibbutz Beit-Haemek, Israel) at 37 °C in a humidified atmosphere with 5% CO2.
(§2) Cell viability was determined by MTT (3–(4,5-dimethylthiazol-2-yl)-2,5-diphenyltetrazolium bromide, Sigma Chemical Co, St. Louis, MO, USA) assay. Cells were seeded in 96-well plates at a density of 5,000 cells/well in a regular culture medium overnight. Then, the cells were treated with various concentrations of indicated compounds for 72 h. After that, the medium was removed, 100 µL MTT solution (0.5 mg/ml in phosphate-buffered saline, PBS) was added to each well and then incubated for 1 h at 37 °C. The insoluble formazan dyes, representing the active mitochondrial dehydrogenase in live cells, were dissolved in the dimethyl sulfoxide (DMSO). The absorbance was analysed by an ELISA reader (Beckman Coulter, Brea, CA, USA) at 550 nm.
(§3) SRB (sulforhodamine B, Sigma Chemical Co, St Louis, MO, USA) assay was used to analyse cell proliferation. Cells were seeded in 96-well plates at a density of 5000 cells/well and then treated with various concentrations of indicated compounds for 48 h. Cells were fixed with 10% TCA (trichloroacetic acid), washed with PBS, and stained with 100 µL SRB solution (0.4% SRB in 1% acetic acid) for 15 min. Then, cells were washed three times with 1% acetic acid and dissolved in the trizma base solution (10 mM). The absorbance was measured by an ELISA reader (Beckman Coulter Diagnostics, Brea, CA, USA) at […].

The target in a further experiment is T1, TAOK1 (Homo sapiens, UniProt Q7L7X3).
T1 construct: purchased Thermo Fisher Scientific (outsourced assay service)
T1 sequence (Q7L7X3 1-1001): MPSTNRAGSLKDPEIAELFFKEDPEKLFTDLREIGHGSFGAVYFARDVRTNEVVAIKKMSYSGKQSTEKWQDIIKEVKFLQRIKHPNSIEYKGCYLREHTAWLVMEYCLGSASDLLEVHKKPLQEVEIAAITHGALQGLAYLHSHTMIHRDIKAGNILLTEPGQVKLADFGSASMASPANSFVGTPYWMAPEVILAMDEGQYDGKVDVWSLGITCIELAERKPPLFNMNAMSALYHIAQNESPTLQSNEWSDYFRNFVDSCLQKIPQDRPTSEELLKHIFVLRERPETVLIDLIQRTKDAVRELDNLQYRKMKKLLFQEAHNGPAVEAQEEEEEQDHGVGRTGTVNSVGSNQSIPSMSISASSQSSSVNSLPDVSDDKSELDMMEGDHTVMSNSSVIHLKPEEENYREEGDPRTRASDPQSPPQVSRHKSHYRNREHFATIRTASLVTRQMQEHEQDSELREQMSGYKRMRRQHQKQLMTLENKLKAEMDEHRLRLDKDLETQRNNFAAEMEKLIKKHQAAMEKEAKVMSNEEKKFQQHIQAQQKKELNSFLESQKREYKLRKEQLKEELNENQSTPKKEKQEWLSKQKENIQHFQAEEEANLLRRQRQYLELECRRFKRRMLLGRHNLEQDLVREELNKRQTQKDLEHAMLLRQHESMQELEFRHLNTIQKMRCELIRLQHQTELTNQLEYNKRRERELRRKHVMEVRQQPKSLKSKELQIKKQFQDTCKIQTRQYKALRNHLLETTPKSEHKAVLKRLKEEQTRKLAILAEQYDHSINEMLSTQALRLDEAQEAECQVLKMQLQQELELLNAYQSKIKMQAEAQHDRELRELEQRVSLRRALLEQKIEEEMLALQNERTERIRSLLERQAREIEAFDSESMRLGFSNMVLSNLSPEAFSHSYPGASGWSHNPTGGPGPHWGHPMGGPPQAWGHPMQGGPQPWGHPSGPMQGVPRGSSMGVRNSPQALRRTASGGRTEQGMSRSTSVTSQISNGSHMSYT
The experiment can be described thus: Enzymatic assay (LanthaScreen, Thermo Fisher). Conditions: for Inhibition percentage at 10 μM TAOK1 / inhibition at 10 µM: 10 μM compound, average of two replicates; for inhibition at 10 µM: read-out: Inhibition percentage at 10 μM TAOK1. It counts as biochemical. As for the experimental part: (§4) The enzymatic assay was outsourced to Thermo Fisher Scientific to conduct. They used LanthaScreen and Z´-LYTE technology, which were both robust homogeneous assays method by Fluorescence Resonance Energy Transfer (FRET) to evaluate TAOK1 and MAP4K5, respectively. Briefly, the test compound was co-incubated with fluorescein-labelled substrate, kinase, ATP, kinase buffer and development reagent for reaction. After 1 h, the stop solution (EDTA) was added and then the results were determined by a fluorescence reader. The data was shown as an average of two replicates.

The test system of experiment [1] is panel of around 70 kinases. The experiment can be described thus: Kinase selectivity (Thermo Fisher SelectScreen kinome panel). It is filed as biochemical. Particulars: concentration selected based on IC50 values. How it is done: The kinase selectivity of selected compounds was performed by Thermo Fisher Select Screen service. A kinome screen occurred across a panel of roughly 70 kinases. Conditions and analyses are available online (www.thermofisher.com/selectscreen).
To evaluate the selectivity of the inhibitors identified in this study, a biochemical assay was conducted by ThermoFisher Scientific. A panel of around 70 kinases from different kinase families as well as all available members of the STE kinase family, was selected for testing (Supplemental Figure 3). The concentration of the compound was selected based on their IC50 values. […] The target kinase in this study, MAP4K5 and TAOK1, belong to the STE20 kinase family. Of the kinases inhibited by compounds 1 and 2, we found eight and three of the kinases to belong to the STE20 kinase family. Together, this implies that the inhibitors identified in this study are selective towards the STE20 kinase family.

Experiment [2] deals with H1299 cells. The experiment is described as follows: SRB cell proliferation assay. Particulars: Homo sapiens, NCI-H1299, 48 h, read-out: GI50 (50% of growth inhibition). It is filed as cell-based. As for the experimental part:
as §1, §3

Experiment [3] has as its system HT29 cells. The experiment can be described thus: SRB cell proliferation assay. Particulars: Homo sapiens, HT-29, 48 h, read-out: GI50 (50% of growth inhibition). It is filed as cell-based. As for the experimental part:
as §1, §3

Experiment [4] relates to HCT116 cells. The experiment can be described thus: SRB cell proliferation assay. It counts as cell-based. Conditions: Homo sapiens, HCT-116, 48 h, read-out: GI50 (50% of growth inhibition). As for the experimental part:
as §1, §3

The subject of experiment [5] is H1299 cells. The experiment is described as follows: MTT cell viability assay. It is filed as cell-based. Conditions: Homo sapiens, NCI-H1299, 72 h, read-out: IC50 (cell survival). As for the experimental part: as §1, §2
Experiment [6] has as its system HT29 cells. The experiment is described as follows: MTT cell viability assay. Conditions: Homo sapiens, HT-29, 72 h, read-out: IC50 (cell survival). It counts as cell-based. How it is done:
as §1, §2

The test system of experiment [7] is HCT116 cells. The experiment is described as follows: MTT cell viability assay. It is filed as cell-based. Conditions: Homo sapiens, HCT-116, 72 h, read-out: IC50 (cell survival). As for the experimental part:
as §1, §2

The target of a further experiment is T2, MAP4K5 (Homo sapiens, UniProt Q9Y4K4).
T2 construct: purchased Thermo Fisher Scientific (outsourced assay service)
The experiment is described as follows: Enzymatic assay (Z'-LYTE, Thermo Fisher). It is filed as biochemical. Conditions: for Inhibition percentage at 10 μM MAP4K5 / inhibition at 10 µM: 10 μM compound, average of two replicates; for inhibition at 10 µM: read-out: Inhibition percentage at 10 μM MAP4K5. How it is done: as §4

T2 sequence (Q9Y4K4 whole entry): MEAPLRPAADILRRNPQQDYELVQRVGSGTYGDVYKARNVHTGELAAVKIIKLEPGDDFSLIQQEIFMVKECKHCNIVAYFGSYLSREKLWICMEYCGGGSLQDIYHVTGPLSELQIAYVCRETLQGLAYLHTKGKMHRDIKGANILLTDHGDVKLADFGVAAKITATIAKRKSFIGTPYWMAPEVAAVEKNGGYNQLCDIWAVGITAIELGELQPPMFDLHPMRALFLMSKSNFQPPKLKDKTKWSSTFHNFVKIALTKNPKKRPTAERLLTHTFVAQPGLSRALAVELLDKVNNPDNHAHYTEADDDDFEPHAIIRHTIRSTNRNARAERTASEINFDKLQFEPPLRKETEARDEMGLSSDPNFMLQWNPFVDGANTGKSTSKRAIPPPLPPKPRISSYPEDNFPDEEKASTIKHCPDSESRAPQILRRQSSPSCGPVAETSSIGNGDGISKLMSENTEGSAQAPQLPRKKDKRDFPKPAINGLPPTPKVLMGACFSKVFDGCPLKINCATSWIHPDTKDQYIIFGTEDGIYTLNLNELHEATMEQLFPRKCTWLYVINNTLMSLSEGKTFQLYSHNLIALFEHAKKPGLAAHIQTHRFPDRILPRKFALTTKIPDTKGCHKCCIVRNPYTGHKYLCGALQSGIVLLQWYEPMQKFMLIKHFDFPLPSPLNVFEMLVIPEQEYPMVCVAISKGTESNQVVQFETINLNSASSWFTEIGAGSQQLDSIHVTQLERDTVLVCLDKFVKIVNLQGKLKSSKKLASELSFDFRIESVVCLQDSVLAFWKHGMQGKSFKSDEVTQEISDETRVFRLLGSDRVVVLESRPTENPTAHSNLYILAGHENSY

For `CCN1CCN(CCNc2nccc(-c3c(-c4cccc(O)c4)nc4sccn34)n2)S1(=O)=O` [Compound 1], in the experiment with HT-29 cells (HT29, 24 h treatment), the “Number of G0/G1-phase cells” value is on record as “increased in a concentration-dependent manner”. Also, the Cell cycle effect entry in the experiment on HT-29 cells (HT-29, 24 h) is “arrested cancer cells at the G0/G1 phase”. Moreover, the “Cancer cell proliferation (SRB) at 10 µM and survival (MTT) at 30 µM” value in the experiment on HCT116, HT29 and H1299 (10 µM for 48 h (SRB), 30 µM for 72 h (MTT), HCT116, HT29, H1299) was “significantly inhibited”. Besides, the IC50 worked out at 4.15 µM at TAOK1; 23.6 µM in the experiment with H1299 cells [5]; 13.3 µM in the experiment with HT29 cells [6]; 13.3 µM with HCT116 cells [7]; 2.25 µM at MAP4K5. Also, at TAOK1, the “Inhibition percentage at 10 μM TAOK1” value was ≥ 50% and 74%. In experiment [1], the “Number of inhibited kinases belonging to the STE20 kinase family” value is on record as “eight”. Moreover, the “Number of kinases inhibited in panel” value in [1] was “nine”. Moreover, the GI50 in the experiment with H1299 cells [2] was 19.2 µM; in the experiment on HT29 cells [3], 6.8 µM; in the experiment with HCT116 cells [4], 3.9 µM. For the same compound, the “Inhibition percentage at 10 μM MAP4K5” value on MAP4K5 is ≥ 50% and 84%.
On to `Nc1nc(N)c2nc(-c3ccc(O)cc3)c(-c3ccc(O)cc3)nc2n1` [Compound 2], for which the “Effect in cell-based experiments” value with HCT116, HT29 and H1299 is “limited effects”. Also, on TAOK1, the concentration for half-maximal inhibition (IC50) was 1.83 µM; the “Inhibition percentage at 10 μM TAOK1” value was ≥ 50% and 84%. In addition, in [1], the “Number of inhibited kinases belonging to the STE20 kinase family” value was “three” and the “Number of kinases inhibited in panel” value is on record as “five”. In addition, on MAP4K5, the IC50 came out at 2 µM; the “Inhibition percentage at 10 μM MAP4K5” value is ≥ 50% and 77%.
In the case of `Nc1ncnc2nc(-c3ccc(C(=O)c4ccc([N+](=O)[O-])cc4)cc3)[nH]c12` [Compound 3], in the experiment with HCT116, HT29 and H1299, the “Effect in cell-based experiments” value is reported as “limited effects”. On TAOK1, the concentration for half-maximal inhibition (IC50) worked out at 5.3 µM, the “Inhibition percentage at 10 μM TAOK1” value is recorded as 63% and the inhibition at 10 µM was at least 50%. In addition, in [1], the “Number of kinases inhibited in panel” value is 23 kinases. Besides, at MAP4K5, the IC50 worked out at 6.28 µM, the “Inhibition percentage at 10 μM MAP4K5” value came to 51% and the inhibition at 10 µM is at least 50%.
With `Nc1nnc(N)c2nc(-c3ccccc3)c(-c3ccccc3)nc12` [Compound 4], the inhibition at 10 µM amounted to 19% at TAOK1 and 54% on MAP4K5.
In the same order, the values of `O=C(Nc1nc2ccccc2[nH]1)c1ccc(C(=O)Nc2nc3ccccc3[nH]2)cc1` [Compound 5] are 1% and 44%.
In the same order, the values of `CC(=O)Nc1ccc(Nc2nc(Cl)nc(Nc3ccc(NC(C)=O)cc3)n2)cc1` [Compound 6] are 12% and 41%.
For the compound `CC1=C(C(=O)Nc2cccc3c2C(=O)NC3=O)CC(C(=O)Nc2cccc3c2C(=O)NC3=O)=C(C)N1` [Compound 7], the inhibition at 10 µM at TAOK1 was found to be 4%; at MAP4K5, 47%.
